Measured values reported in publication PMC10541190 (The Journal of Clinical Investigation, 2023).
Several values for one entry are separate records, joined by “and”; a condition that tells them apart may be missing. Equal values may be shown once. Read-outs that look alike come from different tables or passages of the source. [ ]: non-standard residue; d: D form. Nle = CCCC[C@H](N)C(=O)O

Legend:
[1] = test system: SARS-CoV-2 (USA-WA1/2020); assay: microbe, parasite or virus in culture; format: cell-based
in vitro [2] = details: African green monkey
in vitro [3] = details: human, U-87 MG cell viability (%)
in vitro [4] = details: human, Huh7 cell viability (%)

Compound	SARS-CoV-2 infection (%) ([1]; 0.625 μM)	SARS-CoV-2 infection (%) ([1]; 1.25 μM)	SARS-CoV-2 infection (%) ([1]; 5 μM)	SARS-CoV-2 infection (%) ([1]; 20 μM)	Cell viability (%) (Vero cells; 0.625 μM)	Cell viability (%) (Vero cells; 1.25 μM)	Cell viability (%) (Vero cells; 5 μM)	Cell viability (%) (Vero cells; 20 μM)	viability at 0.625 µM (in vitro [2]; Cell viability (%), 0.625 μM) [%]	viability at 1.25 µM (in vitro [2]; Cell viability (%), 1.25 μM) [%]	viability at 5 µM (in vitro [2]; Cell viability (%), 5 μM) [%]	viability at 20 µM (in vitro [2]; Cell viability (%), 20 μM) [%]	viability at 0.37 µM (in vitro [3]) [%]	viability at 3.33 µM (in vitro [3]) [%]	viability at 10 µM (in vitro [3]) [%]	viability at […] (in vitro [3])	also measured
Penitrem A	91.01% and 104.49% and 97.75%	111.24% and 101.12% and 94.38%	117.98% and 128.09% and 111.24%	6.40% and 7.08% and 9.44%													
O=C(CCCN1CCC2(CC1)C(=O)NCN2c1ccccc1)c1ccc(F)cc1 [Spipe-rone]	124.72% and 114.61% and 131.46%	107.87% and 117.98% and 101.12%	15.17% and 17.19% and 12.81%	0.47% and 0.20% and 0.30%	94.16% and 92.89%	101.11%	96.86% and 95.76%	101.04%	91.9	99.9	94.3	97.4	99.2	101	97	99.5% and 99.9%	
CO[C@@H]1[C@@H](O[C@@H]2O[C@H](C)[C@@H](O[C@H]3C[C@@](C)(O)[C@@H](OC(=O)CC(C)C)[C@H](C)O3)[C@H](N(C)C)[C@H]2O)[C@@H](CC=O)C[C@@H](C)[C@@H](O)/C=C/C=C/C[C@@H](C)OC(=O)C[C@H]1OC(C)=O [Josamycin]																	EC50 ([1]; Severe acute respiratory syndrome coronavirus 2, Vero, 24 h, read-out: SARS-CoV-2 EC50): 2400 nM; CC50 (in vitro [2]): > 20 µM; viability at 0.37 µM (in vitro [4]): 94.1%; viability at 3.33 µM (in vitro [4]): 97.2%; viability at 10 µM (in vitro [4]): 98.2%; viability at […] (in vitro [4]): 96.6% and 93.2%
CC(C)(C)c1cc(/C=C(\C#N)C(N)=S)cc(C(C)(C)C)c1O [Tyrphos-tin AG 879]	47.19% and 30.34% and 33.71%	7.75% and 5.73% and 5.06%	0.40% and 0.44% and 0.27%	0.00337%	83.52% and 84.00%	88.30% and 88.47%	78.46% and 79.21%	71.26% and 69.85%	85.5	87.2	78.7	71					viability at 0.25 µM (in vitro [3]): 96.7%; viability at 0.74 µM (in vitro [3]): 85%; viability at 2.22 µM (in vitro [3]): 85.2%; viability at 6.67 µM (in vitro [3]): 78.3%; viability at 20 µM (in vitro [3]): 70.1%
CO[C@@H]1[C@@H](O[C@@H]2O[C@H](C)[C@@H](O[C@H]3C[C@@](C)(O)[C@@H](OC(=O)CC(C)C)[C@H](C)O3)[C@H](N(C)C)[C@H]2O)[C@@H](CC=O)C[C@@H](C)[C@@H](O)/C=C/C=C/C[C@@H](C)OC(=O)C[C@H]1OC(C)=O [Josa-mycin]				8.09% and 10.77%									90.4	91.6	100	91.6% and 95.3%	SARS-CoV-2 infection (%) [1]: 107.69% and 101.94%; SARS-CoV-2 infection (%) ([1]; 2.22 μM): 48.50% and 53.93%; SARS-CoV-2 infection (%) ([1]; 6.67 μM): 16.19% and 21.54%; Cell viability (%) (Vero cells; 2.22 μM): 93.52% and 91.16%; Cell viability (%) (Vero cells; 6.67 μM): 93.20% and 88.03%; viability at 0.247 µM (in vitro [2]; Cell viability (%)): 102%; viability at 20 µM (in vitro [2]; Cell viability (%)): 89.7%; viability at 2.22 µM (in vitro [2]; Cell viability (%), 2.22 μM): 96.9%; viability at 6.67 µM (in vitro [2]; Cell viability (%), 6.67 μM): 93%
CC(C)(C)NCC(O)c1ccc(O)c(CO)c1 (stereo not shown) [Salbuta-mol]	85.71% and 108.79% and 115.38%	128.57% and 98.90%	92.31% and 118.68% and 115.38%	105.49% and 89.01%													
O=C1NCN(c2ccccc2)C12CCN(CCCC(c1ccc(F)cc1)c1ccc(F)cc1)CC2 [Fluspiri-lene]	121.35% and 117.98% and 101.12%	111.24% and 114.61% and 104.49%	114.61% and 94.38% and 111.24%	3.37% and 2.70% and 4.04%	103.85% and 102.73%	105.07% and 105.49%	94.12% and 91.52%	83.60% and 85.38%	105	108	94	85.1	97	102	93.8	97.8% and 97.9%	
CNc1ccc2oc(C[C@H]3O[C@@]4(CC[C@H]3C)O[C@H]([C@H](C)C(=O)c3ccc[nH]3)[C@H](C)C[C@H]4C)nc2c1C(=O)O [Calci-mycin]	17.53% and 16.18% and 16.52%	0.00337%	0.00337%	0.00337%	91.36% and 94.20%	98.44% and 96.45%	93.68% and 94.54%	81.29%	89.2	98.6	93.5	86.9	103	66.8	58.2	82.3% and 103%	
Ac-Leu-Leu-[Nle]-aldehyde				2.73% and 1.37% and 0.00%													CC50 (Vero cells): > 20 µM; Cell viability (%) (Vero cells; 0.25 μM): 91.85%; Cell viability (%) (Vero cells; 0.74 μM): 90.53%; Cell viability (%) (Vero cells; 6.67 μM): 98.46%
CC(C)(C)c1cc(C=C(C#N)C#N)cc(C(C)(C)C)c1O [Tyrphos-tin A9]	101.12% and 121.35% and 124.72%	131.46% and 128.09% and 114.61%	107.87% and 117.98% and 101.12%	9.10% and 6.07% and 8.43%	112.22% and 113.82%	118.35% and 120.78%	96.34%	97.68% and 97.70%	107	111	96.3	91.5					
COc1ccc2cc1Oc1ccc(cc1)C[C@H]1c3cc(c(OC)cc3CCN1C)Oc1c(OC)c(OC)cc3c1[C@H](C2)N(C)CC3 [Tetran-drine]	107.87% and 117.98% and 101.12%	53.93% and 104.49% and 87.64%	0.61% and 0.84% and 0.88%	0.00337%	99.78%	105.40% and 105.65%	86.02% and 86.44%	48.98% and 79.18% and 56.10%	94.4	101	83.6		101	101	98.9	105% and 97.8%	
O=C(CCCN1CCC2(CC1)C(=O)NCN2c1ccccc1)c1ccc(F)cc1 [Spiperone]																	CC50 (in vitro [2]): > 20 µM; viability at 0.37 µM (in vitro [4]): 99.5%; viability at 3.33 µM (in vitro [4]): 79.2%; viability at 10 µM (in vitro [4]): 75.7%; viability at […] (in vitro [4]): 97% and 99.9%
[N-]=[N+]=CC(=O)OC[C@H](N)C(=O)O [Aza-serine]				0.00%				91.48% and 89.75%				87.1		94.5	84		SARS-CoV-2 infection (%) ([1]; 0.2469 μM): 107.69% and 86.64%; SARS-CoV-2 infection (%) ([1]; 2.2222 μM): 7.01% and 8.09%; SARS-CoV-2 infection (%) ([1]; 6.6667 μM): 2.70% and 1.62%; Cell viability (%) (Vero cells; 0.2469 μM): 103.32%; Cell viability (%) (Vero cells; 2.2222 μM): 96.19% and 95.62%; Cell viability (%) (Vero cells; 6.6667 μM): 94.50% and 92.95%; viability at 0.2469 µM (in vitro [2]; Cell viability (%), 0.2469 μM): 87.9%; viability at 2.2222 µM (in vitro [2]; Cell viability (%), 2.2222 μM): 89.7%; viability at 6.6667 µM (in vitro [2]; Cell viability (%), 6.6667 μM): 92.2%
CC[C@@]1([C@@H]2O[C@@H]([C@H]3O[C@@](O)(CO)[C@H](C)C[C@@H]3C)C[C@@H]2C)CC[C@H]([C@]2(C)CC[C@]3(C[C@H](O)[C@@H](C)[C@@H]([C@@H](C)[C@@H](OC)[C@H](C)C(=O)O)O3)O2)O1 [Monen-sin]	74.16% and 84.27% and 91.01%	33.71% and 60.67% and 53.93%	0.0742% and 0.09% and 0.07%	0.0337%	106.13% and 103.45%	110.73% and 112.93%	95.75% and 98.96%	97.54% and 96.71%	103	113	100	98.8	82	78.7	79.7	79.2% and 83.3%	
O[C@H]1[C@H]2c3cc4c(cc3CN3CCC(=C[C@@H]1O)[C@H]23)OCO4 [Lyco-rine]	7.08% and 5.06% and 8.76%	0.34% and 0.40% and 0.24%	0.00337%	0.00337%	98.69%	103.60% and 104.02%	84.99% and 87.96%	88.99% and 91.05%	93.8	97.9	83	83					
Aurothioglucose																	CC50 (Vero cells): > 20 µM
CN(C)C(=O)C(CCN1CCC(O)(c2ccc(Cl)cc2)CC1)(c1ccccc1)c1ccccc1 [Lopera-mide]													98.7	101	97.5	100% and 98.5%	Cell viability (%) (Vero cells; African green monkey, 20 µM): 99.64%; viability at 0.625 µM (in vitro [2]; Cell viability (%)): 115%; viability at 1.25 µM (in vitro [2]; Cell viability (%)): 121%; viability at 5 µM (in vitro [2]; Cell viability (%)): 105%; viability at 20 µM (in vitro [2]; Cell viability (%)): 98.5%
CN(C)C(=O)C(CCN1CCC(O)(c2ccc(Cl)cc2)CC1)(c1ccccc1)c1ccccc1 [Loperamide]																	CC50 (in vitro [2]): > 20 µM; viability at 0.123 µM (in vitro [4]): 92.4%; viability at 0.37 µM (in vitro [4]): 91.8%; viability at 3.333 µM (in vitro [4]): 88.9%; viability at 10 µM (in vitro [4]): 68.3%
